Eight compounds from patent publication US12486240B2, “Oxadiazole compounds for controlling or preventing phytopathogenic fungi” (PI INDUSTRIES LTD., priority 2019, dated 2025) can be followed below.

A value given as a limit tells only on which side of the number the result lay.

Assay [1] has as its system Botrytis cinerea. Briefly: Botrytis cinerea mycelial radial growth test on potato dextrose agar. The class given is cell-based. The following applies: 300 ppm, 22° C., 90% relative humidity, seven days.
Assay [2] relates to Phakopsora pachyrhizi. Briefly: Phakopsora pachyrhizi test on soybean (preventive spray). It is filed as in vivo. The following applies: preventive spray on soybean plants, inoculated one day after treatment, rated 3, 7, 10 and 15 days after application, read-out: Efficacy (% control) from disease severity rating versus untreated control. As to the method:
Example 5: Phakopsora pachyrhizi Test on Soybean Compounds were dissolved in 2% dimethyl sulfoxide/acetone and then mixed with water containing an emulsifier to a calibrated spray volume of 50 mL. This 50 mL spray solution was poured into spray bottles for further applications. To test the preventive activity of compounds, healthy young Soybean plants raised in the greenhouse were sprayed with the active compound preparation at the stated application rates inside the spray cabinets using hollow cone nozzles. One day after treatment, the plants were inoculated with a spore suspension containing 2×10^5 Phakopsora pachyrhizi conidia. The inoculated plants were then kept in a greenhouse chamber at 22-24° C. temperature and 80-90% relative humidity for disease expression. A visual assessment of the compound's performance was carried out by rating the disease severity (0-100% scale) on treated plants 3, 7, 10 and 15 days after application. Efficacy (% control) of the compounds was calculated by comparing the disease rating in the treatment with the one of the untreated control. The sprayed plants were also assessed for plant compatibility by recording symptoms like necrosis, chlorosis and stunting.

In assay [3] the test system is Rhizoctonia solani. Briefly: Rhizoctonia solani mycelial radial growth test on potato dextrose agar. It is filed as cell-based. The following applies: 300 ppm, 25° C., 60% relative humidity, seven days.

For the compound `COCCN(C)c1c(Nc2ccc(-c3noc(C(F)(F)F)n3)cc2)c(=O)c1=O` [Compound 7, 3-((2-methoxyethyl)(methyl)amino)-4-((4-(5-(trifluoromethyl)-1,2,4-oxadiazol-3-yl)phenyl)amino)cyclobut-3-ene-1,2-dione], the “control (radial growth compared to untreated control)” value in assay [1] is on record as not below 70%. For the same compound, the pest or weed control at 500 ppm in assay [2] is not below 70%. Regarding `CCN(C)c1c(Nc2ccc(-c3noc(C(F)(F)F)n3)cc2)c(=O)c1=O` [Compound 3, 3-(ethyl(methyl)amino)-4-((4-(5-(trifluoromethyl)-1,2,4-oxadiazol-3-yl)phenyl)amino)cyclobut-3-ene-1,2-dione], the “control (radial growth compared to untreated control)” value in assay [3] is not below 70%. Besides, the pest or weed control at 500 ppm in assay [2] is not below 70%.

For `O=c1c(Nc2ccc(-c3noc(C(F)(F)F)n3)cc2)c(N2CCC2)c1=O` [Compound 9, 3-(azetidin-1-yl)-4-((4-(5-(trifluoromethyl)-1,2,4-oxadiazol-3-yl)phenyl)amino)cyclobut-3-ene-1,2-dione], the pest or weed control at 500 ppm in assay [2] is not below 70%. Turning to `C=CCNc1c(NCc2ccc(-c3noc(C(F)(F)F)n3)cc2)c(=O)c1=O` [Compound 20, 3-(allylamino)-4-((4-(5-(trifluoromethyl)-1,2,4-oxadiazol-3-yl)benzyl)amino)cyclobut-3-ene-1,2-dione], the pest or weed control at 500 ppm in assay [2] is not below 70%. Take `CCOC1CN(c2c(Nc3ccc(-c4noc(C(F)(F)F)n4)cc3)c(=O)c2=O)C1` [Compound 6, 3-(3-ethoxyazetidin-1-yl)-4-((4-(5-(trifluoromethyl)-1,2,4-oxadiazol-3-yl)phenyl)amino)cyclobut-3-ene-1,2-dione]: the pest or weed control at 500 ppm in assay [2] is not below 70%. As to `O=c1c(NCc2ccc(-c3noc(C(F)(F)F)n3)cc2)c(N2CCC(F)(F)C2)c1=O` [Compound 33, 3-(3,3-difluoropyrrolidin-1-yl)-4-((4-(5-(trifluoromethyl)-1,2,4-oxadiazol-3-yl)benzyl)amino)cyclobut-3-ene-1,2-dione], the pest or weed control at 500 ppm in assay [2] is not below 70%.

With `COc1c(NCc2ccc(-c3noc(C(F)(F)F)n3)cc2)c(=O)c1=O` [Compound 18, 3-methoxy-4-((4-(5-(trifluoromethyl)-1,2,4-oxadiazol-3-yl)benzyl)amino)cyclobut-3-ene-1,2-dione], the pest or weed control at 500 ppm in assay [2] was not below 70%. The same measure, in the same setting: the result for `CN(Cc1ccc(-c2noc(C(F)(F)F)n2)cc1)c1c(N2CCC(F)(F)C2)c(=O)c1=O` [Compound 50, 3-(3,3-difluoropyrrolidin-1-yl)-4-(methyl(4-(5-(trifluoromethyl)-1,2,4-oxadiazol-3-yl)benzyl)amino)cyclobut-3-ene-1,2-dione] reads not below 70%.
